Read-outs that look alike come from different tables or passages of the source.
Tested on: secretion of hydrochloric acid in the stomach (Shay ulcers)
Assay: Antisecretory activity - Shay ulcers (pylorus-ligated rat)
Assay type: in vivo
Conditions: for Emax: Rattus norvegicus, α=1 represents 100% inhibition of gastric acid hypersecretion, read-out: α (approximate value of intrinsic activity); for Emax / ED50: 2 h; for ED50: rat, pylorus ligation, intraduodenal or intravenous; for PR (potency ratio in comparison with Omeprazole): ratio of mean ED50 on the 3 parameters of test compound to mean ED50 of omeprazole
Procedure: Antisecretory activity--Shay ulcers The gastric secretory inhibitory activity of the compounds of general formula (I) was determined in case of hypersecretion induced in the rat by ligation of gastroduodenal junction according to the procedure described by Shay (Shay H. et al, Gasgroenterology 5, 43-61, 1945). […] Thereafter, they were fasted for 24 hours, with water ad libitum, which period was sufficient to assure a good gastric emptying, then laparectomized under light ether anesthesia, so as to allow to effect a pylorus ligation as closer as possible to the gastroduodenal junction. Two hours after the ligation, the animals were killed by means of an ether excess and stomaches were removed. Gastric contents were recovered, after filtration through a gauze, and placed in graduated test-tubes and centrifuged at 3000×g for 15 minutes. The following parameters were evaluated on the surnatant: volume (ml); pH; free acidity by conversion of pH into H^+ μEq by means of Moore table (Ann. New York Acad. Sci. 1967, 866-874); titrable acidity, by titration of an amount with 0.02N NaOH, using phenolphtalein as the indicator. […] The results were expressed as percent inhibition of hypersecretion induced by pylorus ligation in the control rats. The obtained results are reported in table 3 as: ED50 (μmol/kg) calculated on the basis of the equation of the linear tract of does-effect curves obtained with the test compounds on volume, free and titrable acidities; […]

[1] = free acid output, read-out: ED50 free acid output
[2] = secretion volume, read-out: ED50 volume
[3] = titratable acid output, read-out: ED50 titratable acid output

Row | Compound | Emax [%] | ED50 [1] [µmol/kg] | ED50 [2] [µmol/kg] | ED50 [3] [µmol/kg] | PR (potency ratio in comparison with Omeprazole)
1 | Cn1ccnc1[S+]([O-])Cc1nc2ccccc2[nH]1 (stereo not drawn) [XVII, 1-methyl-2-[2'-benzimidazolylmethylsulfinyl)imidazole] | 70 to 90 | 84.4 | 134 | 109 | 39,7
2 | Cn1ccnc1[S+]([O-])Cc1ccc2ccccc2n1 (stereo not drawn) [XVIII, 1-methyl-2-(2'-quinolylmethylsulfinyl)imidazole] | 100 | 36.9 | 40.3 | 39.4 | 14,0
3 | COc1ccnc(CSc2nccn2-c2ccccc2)c1C [XXIII, 1-phenyl-2-[2'-(3'-methyl-4'-methoxypyridyl)methylthio]imidazole] | 70 | 125 | 125 | 110 | 43,4
4 | CN(C)c1ccccc1CSc1nccn1-c1ccccc1Cl [XXXI, 1-(2'-clorophenyl)-2-[2'-(N,N-dimethylanilyl)methylthio]imidazole] | 90 | 30.1 | 67.2 | 55.1 | 18,4
5 | CN(C)c1ccccc1CSc1nccn1-c1ccccc1F [XXXII, 1-(2'-fluorophenyl)-2-[2'-(N,N-dimethylanilyl)methylthio]imidazole] | 100 | 25.5 | 34.2 | 23.9 | 10,1
6 | COc1ccccc1-n1ccnc1SCc1ccccc1N(C)C [XXXIII, 1-(2'-methoxyphenyl)-2-[2'-(N,N-dimethylanilyl)methylthio]imidazole] | 70 to 80 | 1.2 | 3 | 2 | 0,75
7 | CN(C)c1ccccc1CSc1nccn1-c1ccc(Cl)cc1 [XXXIV, 1-(4'-chlorophenyl)-2-[2'-(N,N-dimethylanilyl)methylthio]imidazole. 2HCl] | 100 | 6.1 | 24.6 | 1.3 | 3,9
8 | [O-][S+](Cc1nc2ccccc2[nH]1)c1nccn1-c1ccc(F)cc1 (stereo not drawn) [XXXIX, 1-(4'-fluorophenyl)-2-[2'-(benzimidazolyl)methylsulfinyl]-imidazole] | 80 | 139 | 300 | 165 | 72,8
9 | CN(C)c1ccccc1CSc1nccn1-c1ccccc1C(F)(F)F [XXXV, 1-(2'-trifluoromethylphenyl)-2-[2'-(N,N-dimethylanilyl)methylthio]imidazole. 2HCl] | 100 | 8.3 | 24.9 | 5 | 4,6
10 | c1ccc(-n2ccnc2SCc2ccc3ccccc3n2)cc1 [XXXVI, 1-phenyl-2-[2'-(quinolyl)methylthio]imidazole] | 60 to 70 | 50 | 120 | 80 | 30,1
11 | COc1ccnc(C[S+]([O-])c2nccn2-c2cccc(F)c2)c1C (stereo not drawn) [XXXVII, 1-(3'-fluorophenyl)-2-[2'-(3'-methyl-4'-methoxypyridyl)methylsulphinyl]imidazole] | 60 to 80 | 73 | 80 | 80 | 28,1
12 | CN(C)c1ccccc1CSc1nccn1-c1ccc(F)cc1 [XXX] | 100 | 9.2 | 21.1 | 11.2 | 5,0

From patent US5066652A, “Thiomethyl and sulfinylmethyl derivatives having gastric acid antisectetory activity and pharmaceutical compositions containing them” (Chiesi Farmaceutici S.p.A., priority 1988, dated 1991)
